In patent US20070190628A1, “Yeast food composition for fuel ethanol production” (priority 2006, published 2007):

Test system: active dry yeast “z”
Assay: Scaled batch fermentation (4 L) of normal gravity corn mash: fermentation time and ethanol production
Format: cell-based, Saccharomyces cerevisiae
Conditions: 4 L batch
Experimental: The fermentation rate in each nutrient-amended corn mash was determined by following the disappearance of dissolved solids by analysis of each sample collected for determination of yeast biomass production, with a digital density meter analyzer (model DMA-45, Anton Paar KG, Graz, Austria) maintained at 20° C. The amounts of ethanol produced during fermentation of each nutrient-amended corn mash were determined by measuring the amount of NADH+H^+ produced after ethanol was converted to acetaldehyde by alcohol dehydrogenase (ADH; Sigma Chemical Co.). An aliquot of each sample was collected for determination of yeast biomass production and diluted to 1:500. […] The absorbance of each tube was then measured at 340 nm after 15 min of incubation using water as the blank. To determine the amount of ethanol produced, a standard curve (ethanol concentration versus absorbance) was prepared using a standard 10% (w/v) ethanol preparation diluted to 1:500 and then diluted further to produce range of ethanol concentrations from 0 to 20 μg in the assay above. The linear equation (y=mx+b) obtained from the plot was used to calculate the amount of ethanol in the test solutions, where y was the absorbance and x was the amount (μg) of ethanol. […] Fermentation rates and ethanol production were determined by repeated sampling and sample processing at specific time intervals as described in Example 1.

NC(N)=O [urea]
maximum ethanol production: 11 % v/v | time within which fermentation was completed: ≤ 48 h
